In ChEMBL document CHEMBL1129152, “Synthesis of constrained thiorphan analogs as inhibitors of neutral endopeptidase” (Bioorg Med Chem Lett, 1996):

Biological target: T1, Neprilysin (Rattus norvegicus, UniProt P07861)
T1 sequence (P07861 whole entry): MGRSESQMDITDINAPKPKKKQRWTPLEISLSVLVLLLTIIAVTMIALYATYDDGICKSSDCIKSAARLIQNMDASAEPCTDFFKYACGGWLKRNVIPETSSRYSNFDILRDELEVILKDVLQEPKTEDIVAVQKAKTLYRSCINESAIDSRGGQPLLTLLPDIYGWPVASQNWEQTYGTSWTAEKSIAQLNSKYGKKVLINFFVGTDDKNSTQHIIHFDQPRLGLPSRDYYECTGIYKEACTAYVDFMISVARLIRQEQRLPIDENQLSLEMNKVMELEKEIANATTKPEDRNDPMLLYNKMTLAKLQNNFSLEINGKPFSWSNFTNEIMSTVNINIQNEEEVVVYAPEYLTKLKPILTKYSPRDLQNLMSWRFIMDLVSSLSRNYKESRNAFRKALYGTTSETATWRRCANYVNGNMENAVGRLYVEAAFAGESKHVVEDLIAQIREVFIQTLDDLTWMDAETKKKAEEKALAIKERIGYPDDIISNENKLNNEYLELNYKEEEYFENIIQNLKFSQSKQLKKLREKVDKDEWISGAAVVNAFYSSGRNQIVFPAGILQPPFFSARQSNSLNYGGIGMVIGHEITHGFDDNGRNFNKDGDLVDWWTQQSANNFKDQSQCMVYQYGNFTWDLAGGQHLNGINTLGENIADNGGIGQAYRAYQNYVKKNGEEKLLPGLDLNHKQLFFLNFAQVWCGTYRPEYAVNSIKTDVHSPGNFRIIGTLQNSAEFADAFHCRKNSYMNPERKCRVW
Assay: Inhibition of neutral endopeptidase (NEP).

| SMILES | Ki [nM] |
| --- | --- |
| O=C(O)[C@@H]1CCCC2c3ccccc3C[C@@H](CS)C(=O)N21 (some centres undefined) | 45 |
| C[C@H](NC(=O)C1(CS)CCc2ccccc2C1)C(=O)OCc1ccccc1 (some centres undefined) | 0.3 |
| O=C(OCc1ccccc1)[C@H](Cc1ccc(O)cc1)NC(=O)C1(CS)CCc2ccccc2C1 (some centres undefined) | 0.5 |
| O=C(CNC(=O)C1(CS)CCc2ccccc2C1)OCc1ccccc1 (centres undefined) | 0.4 |
| O=C(CNC(=O)C1(CS)Cc2ccccc2C1)OCc1ccccc1 | 10 |
| CC(C)[C@H](NC(=O)C1(CS)CCc2ccccc2C1)C(=O)OCc1ccccc1 (some centres undefined) | 2 |
| O=C(NCc1ccc2c(c1)OCO2)C1(CS)CCc2ccccc2C1 (centres undefined) | 14 |
| O=C(O)C1CCC(NC(=O)C2(CS)CCc3ccccc3C2)CC1 (centres undefined) | 0.6 |
| O=C(CS)N[C@H]1Cc2ccccc2C2CCC[C@@H](C(=O)O)N2C1=O (some centres undefined) | 5 |
| COC(=O)[C@H](Cc1ccccc1)NC(=O)C1(CS)CCc2ccccc2C1 (some centres undefined) | 4 |
| COC(=O)CCNC(=O)C1(CS)CCc2ccccc2C1 (centres undefined) | 0.2 |
| COC(=O)[C@H](CC(C)C)NC(=O)C1(CS)CCc2ccccc2C1 (some centres undefined) | 7 |
| O=C(O)[C@@H]1CCCC2c3ccccc3C[C@H](CS)C(=O)N21 (some centres undefined) | > 300 |
| O=C(O)CCCCCCNC(=O)C1(CS)CCc2ccccc2C1 (centres undefined) | 0.6 |
